Measured values: patent publication US10766865B2, “PKM2 modulators and methods for their use” (TOLERO PHARMACEUTICALS, INC., priority 2012, dated 2020)

Experiments:
[1] = molecular target: PKM2 (Homo sapiens, UniProt P14618); assay: Cell-Based Pyruvate Kinase Activity Assay, A549; parameters: host or cells: A549 or NCI-H1299 lung cancer cells; conditions: A549, 30 minutes with compound, n = 4; read-out: Cellular PKM2 activation EC50
Description: Cell-Based Pyruvate Kinase Activity Assay
A549 or NCI-H1299 lung cancer cells were plated at 20,000 cells per well (96-well plate) in MEM media plus 10% FBS, with no additional glutamine or pyruvate. Following overnight incubation, cells were washed with PBS followed by 4 hour incubation in MEM media. Compounds were added to the cells in 1% final concentration DMSO. After 30 minutes, cells were lysed, and pyruvate kinase activity in lysates was determined by Pyruvate Kinase Activity Assay (BioVision, Milpitas, Calif.). Maximum velocity values were calculated from the kinetic data, and AC50 values were determined using Prism GraphPad Software (La Jolla, Calif.). Compound washout experiments were as described above, except after a 30 minute incubation with Example 244 (469 nM), the cells were washed with PBS followed by the addition of MEM media for the indicated time period, lysed and pyruvate kinase activity determined. Results are tabulated in Table 3 and presented graphically in FIGS. 6A and 6B.

[2] = system: PSN-1; assay: Cell line sensitivity (viability, ATPlite); format: cell-based; conditions: Homo sapiens, PSN1; PSN-1, Pancreatic; BME media, 72 hours; read-out: Sensitivity to Example 1 (IC50)
Description: (§1) Viability effect of Example 1 against a subset of lung carcinoma cell lines was determined as follows. Cells were seeded at 1500 cells per well in 384-well plates in BME media, and compound was added in 0.1% DMSO 18 hours later. Viability was determined by ATPlite assay after 72 hours. (See FIG. 4C).
(§2) Example 1 was tested against an expanded panel of cell lines according to the above procedure.

[3] = system: MCF7; assay: Cell line sensitivity (viability, ATPlite); format: cell-based; conditions: Homo sapiens; MCF7, Breast; BME media, 72 hours; read-out: Sensitivity to Example 1 (IC50)
Description: as §1, §2

[4] = system: HCT116; assay: Cell line sensitivity (viability, ATPlite); format: cell-based; conditions: Homo sapiens, HCT-116; HCT116, Colon; BME media, 72 hours; read-out: Sensitivity to Example 1 (IC50)
Description: as §1, §2

[5] = system: H1299; assay: Cell line sensitivity (viability, ATPlite); format: cell-based; conditions: Homo sapiens, NCI-H1299; H1299, Lung; BME media, 72 hours; read-out: Sensitivity to Example 1 (IC50)
Description: as §1, §2

[6] = system: MDA-MB468; assay: Cell line sensitivity (viability, ATPlite); format: cell-based; conditions: Homo sapiens, MDA-MB-468; MDA-MB468, Breast; BME media, 72 hours; read-out: Sensitivity to Example 1 (IC50)
Description: as §1, §2

[7] = system: NCI-H460; assay: Cell line sensitivity (viability, ATPlite); format: cell-based; conditions: Homo sapiens; NCI-H460, Lung; BME media, 72 hours; read-out: Sensitivity to Example 1 (IC50)
Description: as §1, §2

[8] = system: A498; assay: Cell line sensitivity (viability, ATPlite); format: cell-based; conditions: Homo sapiens; A498, Kidney; BME media, 72 hours; read-out: Sensitivity to Example 1 (IC50)
Description: as §1, §2

[9] = system: HepG2; assay: Cell line sensitivity (viability, ATPlite); format: cell-based; conditions: Homo sapiens; HepG2, Liver; BME media, 72 hours; read-out: Sensitivity to Example 1 (IC50)
Description: as §1, §2

[10] = system: UMUC-3; assay: Cell line sensitivity (viability, ATPlite); format: cell-based; conditions: Homo sapiens, UMUC3; UMUC-3, Bladder; BME media, 72 hours; read-out: Sensitivity to Example 1 (IC50)
Description: as §1, §2

[11] = system: NCI-H522; assay: Cell line sensitivity (viability, ATPlite); format: cell-based; conditions: Homo sapiens; NCI-H522, Lung; BME media, 72 hours; read-out: Sensitivity to Example 1 (IC50)
Description: as §1, §2

[12] = system: SW48; assay: Cell line sensitivity (viability, ATPlite); format: cell-based; conditions: Homo sapiens; SW48, Colon; BME media, 72 hours; read-out: Sensitivity to Example 1 (IC50)
Description: as §1, §2

[13] = system: Malme3M; assay: Cell line sensitivity (viability, ATPlite); format: cell-based; conditions: Homo sapiens, Malme-3M, Melanoma, BME media, 72 hours, read-out: Sensitivity to Example 1 (IC50)
Description: as §1, §2

[14] = system: OVCAR-3; assay: Cell line sensitivity (viability, ATPlite); format: cell-based; conditions: Homo sapiens; OVCAR-3, Ovarian; BME media, 72 hours; read-out: Sensitivity to Example 1 (IC50)
Description: as §1, §2

[15] = system: A172; assay: Cell line sensitivity (viability, ATPlite); format: cell-based; conditions: Homo sapiens, A 172; A172, Brain; BME media, 72 hours; read-out: Sensitivity to Example 1 (IC50)
Description: as §1, §2

[16] = system: ACHN; assay: Cell line sensitivity (viability, ATPlite); format: cell-based; conditions: Homo sapiens, Kidney, BME media, 72 hours, read-out: Sensitivity to Example 1 (IC50)
Description: as §1, §2

[17] = system: SW620; assay: Cell line sensitivity (viability, ATPlite); format: cell-based; conditions: Homo sapiens, SW-620; SW620, Colon; BME media, 72 hours; read-out: Sensitivity to Example 1 (IC50)
Description: as §1, §2

[18] = system: Detroit562; assay: Cell line sensitivity (viability, ATPlite); format: cell-based; conditions: Homo sapiens, Detroit 562; Detroit562, Head/Neck; BME media, 72 hours; read-out: Sensitivity to Example 1 (IC50)
Description: as §1, §2

[19] = system: MiaPaCa2; assay: Cell line sensitivity (viability, ATPlite); format: cell-based; conditions: Homo sapiens, MIA PaCa-2; MiaPaCa2, Pancreatic; BME media, 72 hours; read-out: Sensitivity to Example 1 (IC50)
Description: as §1, §2

[20] = system: PL45; assay: Cell line sensitivity (viability, ATPlite); format: cell-based; conditions: PL45, Pancreatic; BME media, 72 hours; read-out: Sensitivity to Example 1 (IC50)
Description: as §1, §2

[21] = system: RKO; assay: Cell line sensitivity (viability, ATPlite); format: cell-based; conditions: Homo sapiens, Colon, BME media, 72 hours, read-out: Sensitivity to Example 1 (IC50)
Description: as §1, §2

[22] = system: Capan2; assay: Cell line sensitivity (viability, ATPlite); format: cell-based; conditions: Homo sapiens, Capan-2; Capan2, Pancreatic; BME media, 72 hours; read-out: Sensitivity to Example 1 (IC50)
Description: as §1, §2

[23] = system: SW948; assay: Cell line sensitivity (viability, ATPlite); format: cell-based; conditions: Homo sapiens; SW948, Colon; BME media, 72 hours; read-out: Sensitivity to Example 1 (IC50)
Description: as §1, §2

[24] = system: HT29; assay: Cell line sensitivity (viability, ATPlite); format: cell-based; conditions: Homo sapiens, HT-29; HT29, Colon; BME media, 72 hours; read-out: Sensitivity to Example 1 (IC50)
Description: as §1, §2

Sequence of PKM2 (P14618 2-531 limits assumed): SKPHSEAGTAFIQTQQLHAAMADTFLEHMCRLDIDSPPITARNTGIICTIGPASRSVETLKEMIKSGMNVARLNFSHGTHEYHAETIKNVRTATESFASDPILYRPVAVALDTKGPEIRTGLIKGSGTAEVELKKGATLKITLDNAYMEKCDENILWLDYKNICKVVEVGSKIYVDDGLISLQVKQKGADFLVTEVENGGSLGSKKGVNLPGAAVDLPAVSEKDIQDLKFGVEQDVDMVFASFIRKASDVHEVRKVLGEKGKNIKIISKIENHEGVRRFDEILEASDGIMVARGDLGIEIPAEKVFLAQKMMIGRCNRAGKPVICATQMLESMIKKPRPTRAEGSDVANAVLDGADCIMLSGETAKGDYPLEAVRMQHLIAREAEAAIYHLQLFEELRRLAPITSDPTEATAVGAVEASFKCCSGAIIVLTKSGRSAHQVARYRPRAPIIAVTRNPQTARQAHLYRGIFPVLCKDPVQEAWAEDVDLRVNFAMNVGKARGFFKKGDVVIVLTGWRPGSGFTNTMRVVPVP

EC50 [1]: 0.26 ± 0.12 µM | IC50 [3]: > 30 µM | IC50 [4]: 0.1 µM | IC50 [5]: 0.6 µM | IC50 [6]: > 30 µM | IC50 [7]: 5 µM | IC50 [9]: > 30 µM | IC50 [11]: > 30 µM | IC50 [12]: > 30 µM | IC50 [14]: 0.02 µM | IC50 [16]: 0.1 µM | IC50 [17]: 0.2 µM | IC50 [19]: 0.2 µM | IC50 [23]: > 30 µM | IC50 [24]: 0.1 µM
SMILES: O=C(c1cc(C(F)(F)F)n[nH]1)N(Cc1ccc(O)cc1F)CC1CCC1 [Example 1, N-(cyclobutylmethyl)-N-(2-fluoro-4-hydroxybenzyl)-3-(trifluoromethyl)-1H-pyrazole-5-carboxamide]
IC50 [2]: > 30 µM | IC50 [8]: > 30 µM | IC50 [10]: > 30 µM | IC50 [13]: > 30 µM | IC50 [15]: 2.3 µM | IC50 [18]: 3 µM | IC50 [20]: > 30 µM | IC50 [21]: > 30 µM | IC50 [22]: > 30 µM
